Test: Dye solubility in deionised water
Type: physicochemical
Conditions: for solubility (in words): assessment of state-of-the-art dyes in the background section
Procedure: An excess of dye was vigorously stirred in deionised water for 1 hour at a temperature of 50° C. The mixture was then cooled down to a temperature of 20° C. and filtered. Dye solubility was determined spectroscopically in the clear filtered solution.

Row | Compound | solubility in comparison to the known dye Acid Red 37 (comparison drawn from Table 3) | solubility (in words) | Solubility (in g per 100 ml of water) (excess dye stirred in deionised water 1 hour at 50° C., cooled to 20° C., filtered, determined spectroscopically)
1 | Nc1ccc2cc(S(=O)(=O)[O-])cc(O)c2c1N=Nc1cc(NC(=O)CCC(=O)[O-])ccc1S(=O)(=O)[O-].[Na+].[Na+].[Na+] [Compound 120] | significantly higher | – | –
2 | Nc1ccc2cc(S(=O)(=O)[O-])cc(O)c2c1N=Nc1ccc(Nc2nc(NCCS(=O)(=O)[O-])nc(NCCS(=O)(=O)[O-])n2)cc1S(=O)(=O)[O-].[Na+].[Na+].[Na+].[Na+] [II] | – | high solubility | –
3 | Acid Red 37 | – | not sufficient | 5 g per 100 ml of water
